Results on 42 compounds are retold here after US8507235B2, “Isoprene production using the DXP and MVA pathway” (Danisco US Inc., priority 2009, dated 2013).

Values joined by “and” are separate entries in the source; they are usually repeats but may differ in a detail not shown here. Equal entries are not always repeated. Where two headings read alike, the source gives them in different places.

In data set [1] the test system is E. coli strain MCM597. In words: Carbon sources affecting isoprene production during growth on glucose (Biolog PM1 and PM2A plates). It is filed as cell-based. As to conditions: 0.5% glucose, 0.2% yeast extract; normalized to control only fed glucose; p<0.1.
Data set [2] concerns E. coli strain MCM597. In words: Carbon sources useful for the production of isoprene (Biolog PM1 plate). The note with it: 0.2% yeast extract, compound as carbon source; normalized to α-D-glucose. It is filed as cell-based.
For the next data set, the target named is T1, Dxr from E. coli (Escherichia coli, UniProt P45568).
T1 construct: His tag (pET15b) (N); made in house; host or cells: E. coli BL21(λDE3)
In words: Dxr inactivation by incubation with DMAPP and HDMAPP. It is filed as biochemical. As to conditions: purified Dxr from E. coli.

The test system of data set [3] is E. coli strain MCM597. In words: Nitrogen sources affecting isoprene production (Biolog PM3B plates). The note with it: 0.5% glucose as sole carbon source, no yeast extract; p<0.1. It counts as cell-based.
For data set [4] the following is noted: about 1 atmosphere and about 60° F.; cited from earlier work.
In data set [5] the test system is dxr null E. coli BL21 strain. It counts as cell-based.
For data set [6], the system named is REM A2—17 strain. In words: Specific productivity of isoprene of strain REM A2—17 in the presence and absence of fosmidomycin (headspace assay). It is filed as cell-based, E. coli. As to conditions: 2 mM fosmidomycin; for activity at 2000 µM: Escherichia coli, 0.75 h, read-out: fraction of isoprene produced during exposure to fosmidomycin relative to absence of the inhibitor (MVA-flux).

For data set [7], the system named is REM A2—17 strain. In words: Accumulation of DXP and MVA pathway metabolites in REM A2—17 with and without fosmidomycin (LC-MS/MS). It is filed as cell-based, E. coli. As to conditions: 2 mM fosmidomycin, 45 min. incubation.
For data set [8], the system named is E. coli BL21 strain harboring the GI1.6-dxr locus. In words: Isoprene production with fosmidomycin in the growth media, GI1.6-dxr strain. The note with it: 1 mM fosmidomycin in the growth media. It counts as cell-based.
The nature of data set [9]: Flammability limits of isoprene (computer simulation and experimental testing). It counts as physicochemical. From the text: Thus, computer modeling and experimental testing were used to determine the flammability limits of isoprene (such as isoprene in the presence of O2, N2, CO2, or any combination of two or more of the foregoing gases) in order to ensure process safety. The flammability envelope is characterized by the lower flammability limit (LFL), the upper flammability limit (UFL), the limiting oxygen concentration (LOC), and the limiting temperature. For a system to be flammable, a minimum amount of fuel (such as isoprene) must be in the presence of a minimum amount of oxidant, typically oxygen. The LFL is the minimum amount of isoprene that must be present to sustain burning, while the UFL is the maximum amount of isoprene that can be present. Above this limit, the mixture is fuel rich and the fraction of oxygen is too low to have a flammable mixture. The LOC indicates the minimum fraction of oxygen that must also be present to have a flammable mixture. The limiting temperature is based on the flash point of isoprene and is that lowest temperature at which combustion of isoprene can propagate. These limits are specific to the concentration of isoprene, type and concentration of oxidant, inerts present in the system, temperature, and pressure of the system. […]

The subject of data set [10] is strains REM H8—12 and REM I7—11. It counts as cell-based, E. coli.
[11] abbreviates: approx. 45 minutes, unlabeled culture without tryptophan (FIG. 98).

T1 sequence (P45568 whole entry): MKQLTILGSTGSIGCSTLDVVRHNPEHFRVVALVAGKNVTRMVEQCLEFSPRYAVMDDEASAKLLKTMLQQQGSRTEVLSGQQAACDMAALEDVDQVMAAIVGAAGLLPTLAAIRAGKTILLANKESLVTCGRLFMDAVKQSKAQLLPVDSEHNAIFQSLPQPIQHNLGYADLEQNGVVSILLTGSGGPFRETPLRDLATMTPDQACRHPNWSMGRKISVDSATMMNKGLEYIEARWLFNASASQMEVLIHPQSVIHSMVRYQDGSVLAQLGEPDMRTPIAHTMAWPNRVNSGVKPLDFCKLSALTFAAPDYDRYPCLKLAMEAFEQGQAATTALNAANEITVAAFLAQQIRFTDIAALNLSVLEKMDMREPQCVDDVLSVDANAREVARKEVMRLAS
Description for Dxr from E. coli: The purified protein, 5 uM, was incubated at several concentration of DMAPP or HMBPP (Echelon Bioscience, Salt Lake City, Utah) in buffer consisting of 100 mM Tris, 100 mM NaCl pH 8, 5 mM MgCl2, 0.2 mM NADPH, 0.2 mM DXP, and 250 nM DXR. D at 37° C. for two hour in a total volume of 50 uL. Dxr activity was measured periodically according to standard assay, see, e.g., Koppisch et al, Biochemistry, 41:236-43 (2002) with a 20-fold dilution of the inactivation reaction mixture. […] Where appropriate additional control activity assays were conducted in the presence of a 20-fold diluted concentration of inactivators (DMAPP or HMBPP).

On to `CC(O)C(C)O` (stereo not drawn) [2,3-butanediol], for which the “specific productivity of isoprene” value with E. coli strain MCM597 [1] is reported as “increasing”. Still for that read-out and setting: for `NCCO` [2-aminoethanol] the value was “increasing”. Still for that read-out and setting: the result for `OC[C@H]1O[C@@H](O[C@H]2[C@H](O)[C@@H](O)[C@H](O)O[C@@H]2CO)[C@H](O)[C@@H](O)[C@@H]1O` [D-cellobiose] reads “increasing”.

Regarding `O=C(CO)[C@@H](O)[C@H](O)[C@H](O)CO` [D-fructose], in the data set on E. coli strain MCM597 [2], the “specific productivity of isoprene” value is on record as “increasing”. With `O=C[C@H](O)[C@@H](O)[C@@H](O)[C@H](O)C(=O)O` [D-galacturonic acid], the “specific productivity of isoprene” value in the data set with E. coli strain MCM597 [1] and in the data set on E. coli strain MCM597 [2] was “increasing” each time. As for `O=C(O)[C@H](O)[C@@H](O)[C@H](O)[C@H](O)CO` [D-gluconic acid], the “specific productivity of isoprene” value in the data set with E. coli strain MCM597 [1] was “increasing”. Same read-out and setting: the result for `N[C@@H](C(=O)O)[C@@H](O)[C@H](O)[C@H](O)CO` [D-glucosaminic acid] reads “increasing”. As to `O=C[C@H](O)[C@@H](O)[C@H](O)[C@H](O)COP(=O)(O)O` [D-glucose-6-phosphate], the “specific productivity of isoprene” value with E. coli strain MCM597 [2] is given as “increasing”. The same measure, in the same setting: the result for `OC[C@@H](O)[C@@H](O)[C@H](O)[C@H](O)CO` [D-mannitol] reads “increasing”.

In the case of `O=C[C@@H](O)[C@@H](O)[C@H](O)[C@H](O)CO` [D-mannose], in the data set on E. coli strain MCM597 [1], the “specific productivity of isoprene” value is given as “increasing”. Consider `O=C(CO)[C@H](O)[C@H](O)[C@H](O)CO` [D-psicose], for which, in the data set with E. coli strain MCM597 [1], the “specific productivity of isoprene” value is reported as “increasing”.

For the compound `OC[C@H]1O[C@H](O[C@H]2O[C@H](CO)[C@@H](O)[C@H](O)[C@H]2O)[C@H](O)[C@@H](O)[C@@H]1O` [D-trehalose], the “specific productivity of isoprene” value with E. coli strain MCM597 [2] is “increasing”. Take `C/C(=C\COP(=O)(O)OP(=O)(O)O)CO` [HMBPP, 1-hydroxy-2-methyl-2-(E)-butenyl 4-diphosphate]: at Dxr from E. coli, the “Dxr activity after incubation with the compound” value is given as “inactivated”. As for `NC(=O)C[C@H](N)C(=O)O` [L-asparagine], in the data set with E. coli strain MCM597 [3], the specific isoprene production entry is “increasing”.

For the compound `N[C@@H](CC(=O)O)C(=O)O` [L-aspartic acid], the specific isoprene production result in the data set on E. coli strain MCM597 [3] is “increasing”.

Regarding `O=C1O[C@H]([C@@H](O)CO)[C@@H](O)[C@@H]1O` [L-galactonic acid-γ-lactone], in the data set with E. coli strain MCM597 [1], the “specific productivity of isoprene” value is recorded as “increasing”. For `N[C@@H](CCC(=O)O)C(=O)O` [L-glutamic acid], in the data set with E. coli strain MCM597 [3], the specific isoprene production result is “increasing”.

Turning to `O=C(O)C[C@H](O)C(=O)O` [L-malic acid], the “specific productivity of isoprene” value with E. coli strain MCM597 [1] is recorded as “increasing”. On to `CSCC[C@H](N)C(=O)O` [L-methionine], for which the specific isoprene production result with E. coli strain MCM597 [3] was “negatively affecting”. With `N[C@@H](Cc1ccccc1)C(=O)O` [L-phenylalanine], the “specific productivity of isoprene” value with E. coli strain MCM597 [1] is “increasing”.

Take `N[C@@H](CO)C(=O)O` [L-serine]: the specific isoprene production entry with E. coli strain MCM597 [3] is “increasing”. Take `C[C@@H](O)[C@H](N)C(=O)O` [L-threonine]: the specific isoprene production entry with E. coli strain MCM597 [3] was “increasing”. For `N[C@@H](Cc1c[nH]c2ccccc12)C(=O)O` [L-tryptophan], the specific isoprene production entry in the data set on E. coli strain MCM597 [3] was “increasing”. `N[C@@H](Cc1ccc(O)cc1)C(=O)O` [L-tyrosine]: the specific isoprene production result in the data set on E. coli strain MCM597 [3] was “negatively affecting”. As to `CC(=O)N[C@H]1C(O)O[C@H](CO)[C@@H](O)[C@@H]1O` (stereo partly drawn) [N-acetyl-D-glucosamine], the “specific productivity of isoprene” value in the data set with E. coli strain MCM597 [2] is listed as “increasing”. In the case of `Nc1ncnc2nc[nH]c12` [adenine], the specific isoprene production entry with E. coli strain MCM597 [3] was “negatively affecting”. As for `N` [ammonia], in the data set with E. coli strain MCM597 [3], the specific isoprene production result was “did not significantly change”. With `CCO` [ethanol], in data set [4], the “limiting oxygen concentration (LOC)” value is reported as “about 8.7 vol %” and the “lower flammability limit (LFL)” value is reported as “about 3.3 vol %”. Consider `O=CN(O)CCCP(=O)(O)O` [fosmidomycin], for which the figures for the isoprene production entry in data set [5] and in data set [8] were “same level of isoprene production” and “undetectable level”, respectively. For the same compound, the “decrease in isoprene production with fosmidomycin (DXP-flux)” value in the data set on REM A2—17 strain [6] (1-13C glucose culture with 50 uM tryptophan (FIG. 98)) is 51%; in the data set with REM A2—17 strain [6] (1-13C glucose culture without tryptophan), 42% and 43%. Further, the “decrease in isoprene production with fosmidomycin (DXP pathway contribution)” value is 43% and ~42% in the data set with REM A2—17 strain [6] (3-13C glucose); around 48% in the data set with REM A2—17 strain [6] (setting [11]); 41% in the data set on REM A2—17 strain [6] (approx. 45 minutes, unlabeled glucose (FIG. 96, 97)). For the same compound, the “fraction of isoprene produced during exposure to fosmidomycin relative to absence of the inhibitor (MVA pathway contribution)” value in the data set on REM A2—17 strain [6] (setting [11]) was “roughly 52%”; with REM A2—17 strain [6] (approx. 45 minutes, unlabeled glucose (FIG. 96)), “roughly 59%”; in the data set with REM A2—17 strain [6] (approx. 1 hour, 3-13C glucose (FIG. 99)) it was “roughly 58%”. Also, the activity at 2000 µM with REM A2—17 strain [6] (approx. 45 minutes, 1-13C glucose culture with 50 uM tryptophan (FIG. 98)) was determined as 49%; in the data set with REM A2—17 strain [6] (approx. 45 minutes, 1-13C glucose culture without tryptophan (FIG. 98)) it was 57%. Further, in the data set with REM A2—17 strain [7], the DXP concentration entry was “significant increase”. For the same compound, the HDMAPP concentration entry in the data set with REM A2—17 strain [7] is on record as “decrease”. The “concentration of MEP, CDP-ME and cMEPP” value in the data set on REM A2—17 strain [7] is listed as “drop”. In addition, in the data set on REM A2—17 strain [7], the “concentration of MVA” value is “did not change”. Moreover, the “decrease of the cumulative amount of IPP and DMAPP” value in the data set with REM A2—17 strain [7] amounted to 55%. As to `NC(=O)[C@@H](O)[C@@H](O)[C@H](O)[C@@H](O)C=O` [glucuronamide], the “specific productivity of isoprene” value with E. coli strain MCM597 [1] was “increasing”. Regarding `Nc1nc2c(ncn2[C@@H]2O[C@H](CO)[C@@H](O)[C@H]2O)c(=O)[nH]1` [guanosine], the specific isoprene production entry in the data set with E. coli strain MCM597 [3] is given as “increasing”. Regarding `OC[C@H]1O[C@@H](n2cnc3c(O)ncnc32)[C@H](O)[C@@H]1O` [inosine], the “specific productivity of isoprene” value in the data set with E. coli strain MCM597 [1] is listed as “increasing”. For the same compound, the specific isoprene production result in the data set with E. coli strain MCM597 [3] is given as “increasing”. For `C=CC(=C)C` [isoprene, 2-methyl-1,3-butadiene], the limiting temperature entry in [9] was “about −54 °C”. Moreover, the “limiting oxygen concentration (LOC)” value in data set [9] (isoprene, O2, N2, and CO2 mixture at 40° C. and 1 atmosphere) was 9.5 vol %. With `C[C@@](O)(CCO)CC(=O)O` [mevalonic acid, (R)-mevalonic acid], in data set [10], the “isoprene specific productivity from mevalonate (m/z of 67)” value was “increased with increasing mevalonic acid concentration” and the “specific productivity of isoprene from [U-13C]-glucose (m/z of 73)” value was “the same”. With `O=C(O)[C@@H](O)[C@H](O)[C@H](O)[C@@H](O)C(=O)O` [mucic acid], in the data set on E. coli strain MCM597 [1], the “specific productivity of isoprene” value was “increasing”. In the case of `O=[N+]([O-])O` [nitrate], the specific isoprene production entry with E. coli strain MCM597 [3] is reported as “did not significantly change”. As for `O=NO` [nitrite], in the data set on E. coli strain MCM597 [3], the specific isoprene production entry was “did not significantly change”. Take `NCCc1ccccc1` [phenylethylamine]: the “specific productivity of isoprene” value in the data set on E. coli strain MCM597 [1] is “increasing”.

Regarding `CCC(=O)O` [propionic acid], in the data set on E. coli strain MCM597 [1], the “specific productivity of isoprene” value is “increasing”. Same read-out and setting: the result for `OC[C@H]1O[C@@](CO)(O[C@H]2O[C@H](CO)[C@@H](O)[C@H](O)[C@H]2O)[C@@H](O)[C@@H]1O` [sucrose] reads “increasing”. On to `NC(N)=O` [urea], for which the specific isoprene production entry in the data set on E. coli strain MCM597 [3] is given as “did not significantly change”. With `OC[C@H]1O[C@H](O)[C@H](O)[C@@H](O)[C@@H]1O` [α-D-glucose], the “specific productivity of isoprene” value in the data set with E. coli strain MCM597 [2] is given as “increasing”.
